Measurements: patent US20220235136A1, “METHODS AND COMPOSITIONS FOR TREATING A DISEASE OR DISORDER” (YALE UNIVERSITY, priority 2019, published 2022)

Key:
B16 melanoma = experiment: subcutaneous B16 melanoma mouse tumor model; details: alone or combination
Procedure: For B16 tumor model, C57BL/6 mice were inoculated subcutaneously with B16 melanoma at 2×1^5 per mouse. […] CD93 mAb (300 μg i.p.) treatment was administrated on the day of randomization (day 0), day 4 and day 9. 5-FU (3.5 mg i.p.) was administrated on day 2 and day 7. Measurements of tumor size were taken every 2 or 3 days. When tumor volume was exceeding 2000 mm^3 and/or ulceration formed, tumor bearing mice were considered as death for the calculation of survival curve.

human IGF1R = target: T1, human IGF1R (Homo sapiens, UniProt P08069); experiment: IGFBP7-Ig binding to IGF1R transfected CHO cells (flow cytometry)
T1 construct: expressed in transfected cells; host or cells: CHO
Procedure: Wild type CHO and IGF1R transfected CHO cells were stained for human IGF1R staining antibody to confirm surface IGF1R expression. At the same time, cells were incubated with IGFBP7-Ig for possible interaction by flow cytometry analysis, […]

HUVEC cells = experiment: HUVEC tube formation and transwell migration assay with exogenous IGFBP7 protein; format: cell-based, human
Procedure: Pooled human umbilical vein ECs (HUVEC) purchased from Thermo Fisher were cultured in Medium 200 with LVES (Life Technologies). C57BL/6 mouse primary aortic ECs and the endothelium culture medium with supplement were purchased from Cell Biologics. For tube formation, HUVECs at 2×10^4 cells/ml were plated on Matrigel in 24-well plate. Image was recorded even 4-6 hours after incubation. The Transwell 6.5 mm polycarbonate membrane inserts pre-loaded in 24-well culture plates (Corning 3422, 8 um) were used in the cell migration model. HUVEC cells at 1×10^5/ml in 200 μl were loaded into each 24-well insert with 500 μl IBS-containing medium with different reagents in the lower chamber. After approximately 20 hours, the migrated cells were fixed with methanol, stained with Giemsa solution and counted under a light microscope.

CD93 = target: T2, CD93 (Homo sapiens, UniProt Q9NPY3); experiment: binding of Ig fusion proteins to CD93 transfectant (flow cytometry)
T2 construct: expressed in transfected cells; host or cells: 293 cells (CD93+ 293)
T2 sequence (Q9NPY3 22-652): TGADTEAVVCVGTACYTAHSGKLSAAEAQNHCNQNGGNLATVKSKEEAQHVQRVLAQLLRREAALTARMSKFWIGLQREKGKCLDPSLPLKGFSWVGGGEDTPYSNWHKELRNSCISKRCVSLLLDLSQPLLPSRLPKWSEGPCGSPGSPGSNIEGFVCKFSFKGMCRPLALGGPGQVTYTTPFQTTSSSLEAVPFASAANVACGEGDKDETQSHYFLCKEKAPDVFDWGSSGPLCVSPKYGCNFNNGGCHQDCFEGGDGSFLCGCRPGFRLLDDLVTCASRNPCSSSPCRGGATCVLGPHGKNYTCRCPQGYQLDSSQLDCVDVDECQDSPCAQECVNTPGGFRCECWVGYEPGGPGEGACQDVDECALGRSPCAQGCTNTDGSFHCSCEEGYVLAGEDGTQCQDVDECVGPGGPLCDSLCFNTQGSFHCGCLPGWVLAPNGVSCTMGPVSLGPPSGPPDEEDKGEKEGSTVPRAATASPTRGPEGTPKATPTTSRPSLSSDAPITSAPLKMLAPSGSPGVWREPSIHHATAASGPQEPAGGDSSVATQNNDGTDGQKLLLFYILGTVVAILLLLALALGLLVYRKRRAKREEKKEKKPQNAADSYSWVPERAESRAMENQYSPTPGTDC
Text: FIGS. 10A-10B show identification of the binding domain on IGFBP7 for CD93. Each extracellular domain for IGFBP7, including insulin binding (IB). Kazal, and Ig, was swapped with the corresponding domain on IGFBPL1 using PCR cloning and fused to a C-terminal Ig. These chimeric mutants were transiently expressed in HEK293T cells and supernatants were used to stain CD93 transfectant. FIG. 10A depicts whether multiple chimeric IGFBP7 mutants bind to CD93. FIG. 10B depicts various human genes containing IB-domain constructed onto an expression vector containing Fc-Tag. Constructs were transiently transduced into HEK293T cells to produce Fc tagged fusion proteins in the supernatant. Supernatant was used to stain CD93 transfectant by flow cytometry. Binding index represents the ratio of binding MFI of CD93 transfectant to control cells.
The IGFBP7-IGFBPL1 chimeras were generated by two-step PCR. […]
Cell surface and intercellular staining and analysis by flow cytometry were followed the protocol previously described (71). Dead cells were excluded with SYTOX® (Blue Dead Cell Stain Kit (Thermo Fisher Scientific). Flow cytometric analysis was conducted with a BD FACS Calibur or a BD LSRFortessa™ cell analyzer (BD Bioscience, Franklin Lakes, N.J. USA), and then data were analyzed by FlowJo software (Tree Star Inc.)

CD93 binding by MMRN2 = target: T3, CD93 binding by MMRN2 (Homo sapiens, UniProt Q9NPY3); experiment: MMRN2-Ig binding to CD93-expressing CHO cells in the presence of IGFBP7-His; details: IGFBP7 added
T3 construct: expressed in transfected cells
T3 sequence (Q9NPY3 22-652): T2 sequence (Q9NPY3 22-652)
T3 sequence (Q9H8L6 23-949 partner): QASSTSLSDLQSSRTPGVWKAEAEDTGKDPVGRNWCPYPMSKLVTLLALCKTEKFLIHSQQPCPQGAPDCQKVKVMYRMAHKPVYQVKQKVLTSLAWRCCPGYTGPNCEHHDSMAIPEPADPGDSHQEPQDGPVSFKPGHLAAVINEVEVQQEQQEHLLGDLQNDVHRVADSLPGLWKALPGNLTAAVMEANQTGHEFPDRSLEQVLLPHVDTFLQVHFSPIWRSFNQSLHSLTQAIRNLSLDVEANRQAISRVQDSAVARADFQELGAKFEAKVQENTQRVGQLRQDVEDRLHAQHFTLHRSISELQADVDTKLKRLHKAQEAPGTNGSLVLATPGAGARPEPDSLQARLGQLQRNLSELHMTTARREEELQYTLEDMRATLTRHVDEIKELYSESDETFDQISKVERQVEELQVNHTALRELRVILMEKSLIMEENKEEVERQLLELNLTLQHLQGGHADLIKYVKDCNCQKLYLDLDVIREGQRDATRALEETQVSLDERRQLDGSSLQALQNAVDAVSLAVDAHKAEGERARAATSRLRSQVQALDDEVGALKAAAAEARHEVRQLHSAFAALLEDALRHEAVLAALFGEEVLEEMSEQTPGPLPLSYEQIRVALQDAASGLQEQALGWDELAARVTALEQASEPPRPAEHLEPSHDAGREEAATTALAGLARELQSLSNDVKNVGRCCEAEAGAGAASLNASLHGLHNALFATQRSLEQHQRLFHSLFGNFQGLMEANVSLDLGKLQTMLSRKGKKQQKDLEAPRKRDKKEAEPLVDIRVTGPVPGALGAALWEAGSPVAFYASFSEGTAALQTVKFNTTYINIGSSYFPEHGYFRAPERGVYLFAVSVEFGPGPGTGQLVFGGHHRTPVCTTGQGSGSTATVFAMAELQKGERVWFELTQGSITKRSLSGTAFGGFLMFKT
Procedure: In FIG. 28A, binding of HEK293 T cells transfected to express group 14 C-type lectin molecules were stained for the binding of IGFBP7-Ig and MMRN2-Ig. In FIG. 28B. CHO cells stably expressing CD93 were stained with control or MMRN2-Ig, with or without the presence of IGFBP7-His protein. In FIG. 28C, well coated with IGFBP7-His protein were incubated with CD93-His protein before examining for MMRN2-Ig binding by ELISA. Wells coated with CD93-His protein were used as a positive control. In FIG. 28D. HEK293T cells transfected with control or CD93 construct were stained with MMRN-Ig for binding, with or without the presence of anti-mCD93 (7C10). In FIG. 28E HEK293T cells transfected to express different mouse CD93 mutants were stained with anti-CD93 (7C10), IGFBP7-Ig, and MMRN2-Ig.

[1] = tested on: IGFBP7 expression in tumor endothelial cells; details: 24 hours after treatment; published RNA-Seq data; cited from earlier work

T1 sequence (P08069 31-736 limits assumed): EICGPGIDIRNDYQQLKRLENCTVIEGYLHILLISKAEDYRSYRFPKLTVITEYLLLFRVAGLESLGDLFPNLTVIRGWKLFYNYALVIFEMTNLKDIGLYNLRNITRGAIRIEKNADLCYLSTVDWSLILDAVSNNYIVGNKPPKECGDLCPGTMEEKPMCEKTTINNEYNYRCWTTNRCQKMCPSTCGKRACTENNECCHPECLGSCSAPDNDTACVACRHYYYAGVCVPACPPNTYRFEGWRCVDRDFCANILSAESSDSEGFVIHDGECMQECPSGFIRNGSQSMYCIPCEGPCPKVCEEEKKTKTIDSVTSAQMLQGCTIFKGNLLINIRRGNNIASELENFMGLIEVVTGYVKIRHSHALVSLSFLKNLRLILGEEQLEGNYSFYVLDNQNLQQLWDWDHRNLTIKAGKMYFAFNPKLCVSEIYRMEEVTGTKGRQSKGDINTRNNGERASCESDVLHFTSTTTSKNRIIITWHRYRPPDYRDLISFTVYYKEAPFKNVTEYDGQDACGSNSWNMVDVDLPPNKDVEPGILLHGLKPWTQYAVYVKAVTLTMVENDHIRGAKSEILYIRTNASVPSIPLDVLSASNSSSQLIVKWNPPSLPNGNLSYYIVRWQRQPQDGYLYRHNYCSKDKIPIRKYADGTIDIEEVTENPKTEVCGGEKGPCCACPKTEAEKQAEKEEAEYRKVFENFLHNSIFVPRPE
T1 sequence (P08069 741-1367 limits assumed): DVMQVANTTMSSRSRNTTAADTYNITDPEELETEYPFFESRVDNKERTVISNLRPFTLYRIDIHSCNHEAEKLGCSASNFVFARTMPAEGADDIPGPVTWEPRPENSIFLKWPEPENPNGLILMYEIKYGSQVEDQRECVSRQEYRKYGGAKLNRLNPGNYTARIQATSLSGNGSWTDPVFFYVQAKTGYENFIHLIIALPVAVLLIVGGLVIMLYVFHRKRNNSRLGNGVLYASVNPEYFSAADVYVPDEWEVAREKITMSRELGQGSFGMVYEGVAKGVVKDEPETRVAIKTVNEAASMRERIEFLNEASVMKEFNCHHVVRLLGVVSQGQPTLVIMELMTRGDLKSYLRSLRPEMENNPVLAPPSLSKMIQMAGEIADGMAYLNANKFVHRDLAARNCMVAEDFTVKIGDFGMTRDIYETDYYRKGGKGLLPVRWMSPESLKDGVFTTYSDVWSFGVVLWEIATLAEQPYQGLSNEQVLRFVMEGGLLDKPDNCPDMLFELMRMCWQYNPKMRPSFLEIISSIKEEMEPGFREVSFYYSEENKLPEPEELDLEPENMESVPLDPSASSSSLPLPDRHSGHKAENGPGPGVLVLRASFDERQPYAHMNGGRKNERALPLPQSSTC

O=c1[nH]cc(F)c(=O)[nH]1 [5-FU, 5-fluorouracil]
B16 tumor growth (B16 melanoma): modestly inhibited

IGFBP7: a secreted protein of the insulin growth factor binding protein (IGFBP) family; recombinant protein / Fc fusion
binding to human IGF1R transfectant (human IGF1R): fails to bind
tube formation or EC migration in CD93 knockdown HUVEC cells (HUVEC cells; CD93 siRNA): lost its effect
tube formation and proliferation of wild type HUVEC cells (HUVEC cells; exogenous protein added): increased
binding to CD93 293 cells / CD93 transfectant (CD93; flow cytometry): strongly
binding to group 14 C-type lectin molecules (CD93; transfected HEK293T cells): only bound to CD93
effect on the CD93 binding by MMRN2 (CD93 binding by MMRN2): did not interfere

aflibercept: a VEGF inhibitor
IGFBP7 in tumor ECs [1]: significantly inhibited
